Measurements as given in US8822462B2, “Subunit selective NMDA receptor potentiators for the treatment of neurological conditions” (Emory University, priority 2009, dated 2014).

Assays:
[1] = molecular target: NR1/NR2D (Homo sapiens, UniProt O15399+Q05586); experiment: Two electrode voltage clamp, Xenopus laevis oocytes expressing NR1/NR2D; conditions: for activity at 30 µM: read-out: 2D percent effect at the maximum tested concentration, at 30 μM; for activity at 100 µM: read-out: 2D percent effect at the maximum tested concentration, at 100 μM; for Emax: read-out: 2D Max
[2] = molecular target: T1, NR1/NR2C (Homo sapiens, UniProt Q05586+Q14957); experiment: Two electrode voltage clamp, Xenopus laevis oocytes expressing NR1/NR2C; format: cell-based; conditions: for IC50: fitted to composite concentration-effect data, read-out: 2C IC50; for Emax: maximal effect of fit, read-out: 2C Max
T1 construct: expressed in transfected cells; host or cells: Xenopus laevis oocytes
From the text: Values are mean+SEM (n=14-20). […] C is the closed level; broken line is the open level.
The Hill slope at both receptors for all analogues was greater than 1, consistent with a cooperative effect of binding at two sites.
(§1) In the table above, potency is expressed as fitted EC50 value to average composite concentration-effect data constructed from current responses recorded under two electrode voltage clamp from Xenopus laevis oocytes expressing either NR1/NR2A, B, C, or D, GluR1, or GluR6. No effect means less than 20% change in response amplitude at 30 μM of drug.

[3] = molecular target: T2, NR1/NR2A (Homo sapiens, UniProt Q12879); experiment: Two electrode voltage clamp, Xenopus laevis oocytes expressing NR1/NR2A; format: cell-based; conditions: read-out: 2A percent effect at the maximum tested concentration
T2 construct: expressed in transfected cells; host or cells: Xenopus laevis oocytes
Description: as §1

[4] = molecular target: T3, NR1/NR2B (Homo sapiens, UniProt Q05586+Q13224); experiment: Two electrode voltage clamp, Xenopus laevis oocytes expressing NR1/NR2B; format: cell-based; conditions: read-out: 2B percent effect at the maximum tested concentration
T3 construct: expressed in transfected cells; host or cells: Xenopus laevis oocytes
Description: as §1

[5] = read-out: 2C percent effect at the maximum tested concentration

T1 sequence (Q14957 20-1233, species assumed, other chains not shown): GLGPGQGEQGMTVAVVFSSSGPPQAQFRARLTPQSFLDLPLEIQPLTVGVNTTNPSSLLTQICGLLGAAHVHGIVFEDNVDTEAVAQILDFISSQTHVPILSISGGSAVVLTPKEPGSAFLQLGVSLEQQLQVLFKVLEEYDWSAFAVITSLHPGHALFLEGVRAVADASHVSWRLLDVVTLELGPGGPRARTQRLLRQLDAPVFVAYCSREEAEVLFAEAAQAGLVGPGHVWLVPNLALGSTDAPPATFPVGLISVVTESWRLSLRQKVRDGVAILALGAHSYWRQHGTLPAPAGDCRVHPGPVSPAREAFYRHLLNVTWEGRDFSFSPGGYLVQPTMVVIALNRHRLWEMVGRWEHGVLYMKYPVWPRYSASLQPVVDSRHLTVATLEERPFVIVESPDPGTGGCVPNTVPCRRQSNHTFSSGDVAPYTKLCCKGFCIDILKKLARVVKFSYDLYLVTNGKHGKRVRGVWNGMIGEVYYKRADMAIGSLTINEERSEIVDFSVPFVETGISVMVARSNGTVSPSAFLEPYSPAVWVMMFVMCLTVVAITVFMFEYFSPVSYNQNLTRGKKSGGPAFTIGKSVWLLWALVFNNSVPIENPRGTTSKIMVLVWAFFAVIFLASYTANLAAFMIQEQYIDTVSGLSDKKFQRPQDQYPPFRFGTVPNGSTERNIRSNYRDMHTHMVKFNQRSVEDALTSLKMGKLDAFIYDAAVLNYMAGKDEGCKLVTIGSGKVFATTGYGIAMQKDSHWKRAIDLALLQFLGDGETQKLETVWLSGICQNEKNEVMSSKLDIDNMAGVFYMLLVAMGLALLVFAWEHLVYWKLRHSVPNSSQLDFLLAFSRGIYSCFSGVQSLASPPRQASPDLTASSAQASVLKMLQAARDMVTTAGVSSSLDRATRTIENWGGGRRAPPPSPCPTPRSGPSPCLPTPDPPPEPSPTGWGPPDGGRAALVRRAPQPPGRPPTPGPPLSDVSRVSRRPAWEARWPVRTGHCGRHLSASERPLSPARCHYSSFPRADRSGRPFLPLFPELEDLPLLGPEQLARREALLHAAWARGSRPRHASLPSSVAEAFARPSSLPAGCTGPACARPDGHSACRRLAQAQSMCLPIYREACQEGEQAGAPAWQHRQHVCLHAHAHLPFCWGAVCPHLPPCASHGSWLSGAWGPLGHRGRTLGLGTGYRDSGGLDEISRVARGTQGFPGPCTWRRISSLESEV
T2 sequence (Q12879 23-1464, species assumed, other chains not shown): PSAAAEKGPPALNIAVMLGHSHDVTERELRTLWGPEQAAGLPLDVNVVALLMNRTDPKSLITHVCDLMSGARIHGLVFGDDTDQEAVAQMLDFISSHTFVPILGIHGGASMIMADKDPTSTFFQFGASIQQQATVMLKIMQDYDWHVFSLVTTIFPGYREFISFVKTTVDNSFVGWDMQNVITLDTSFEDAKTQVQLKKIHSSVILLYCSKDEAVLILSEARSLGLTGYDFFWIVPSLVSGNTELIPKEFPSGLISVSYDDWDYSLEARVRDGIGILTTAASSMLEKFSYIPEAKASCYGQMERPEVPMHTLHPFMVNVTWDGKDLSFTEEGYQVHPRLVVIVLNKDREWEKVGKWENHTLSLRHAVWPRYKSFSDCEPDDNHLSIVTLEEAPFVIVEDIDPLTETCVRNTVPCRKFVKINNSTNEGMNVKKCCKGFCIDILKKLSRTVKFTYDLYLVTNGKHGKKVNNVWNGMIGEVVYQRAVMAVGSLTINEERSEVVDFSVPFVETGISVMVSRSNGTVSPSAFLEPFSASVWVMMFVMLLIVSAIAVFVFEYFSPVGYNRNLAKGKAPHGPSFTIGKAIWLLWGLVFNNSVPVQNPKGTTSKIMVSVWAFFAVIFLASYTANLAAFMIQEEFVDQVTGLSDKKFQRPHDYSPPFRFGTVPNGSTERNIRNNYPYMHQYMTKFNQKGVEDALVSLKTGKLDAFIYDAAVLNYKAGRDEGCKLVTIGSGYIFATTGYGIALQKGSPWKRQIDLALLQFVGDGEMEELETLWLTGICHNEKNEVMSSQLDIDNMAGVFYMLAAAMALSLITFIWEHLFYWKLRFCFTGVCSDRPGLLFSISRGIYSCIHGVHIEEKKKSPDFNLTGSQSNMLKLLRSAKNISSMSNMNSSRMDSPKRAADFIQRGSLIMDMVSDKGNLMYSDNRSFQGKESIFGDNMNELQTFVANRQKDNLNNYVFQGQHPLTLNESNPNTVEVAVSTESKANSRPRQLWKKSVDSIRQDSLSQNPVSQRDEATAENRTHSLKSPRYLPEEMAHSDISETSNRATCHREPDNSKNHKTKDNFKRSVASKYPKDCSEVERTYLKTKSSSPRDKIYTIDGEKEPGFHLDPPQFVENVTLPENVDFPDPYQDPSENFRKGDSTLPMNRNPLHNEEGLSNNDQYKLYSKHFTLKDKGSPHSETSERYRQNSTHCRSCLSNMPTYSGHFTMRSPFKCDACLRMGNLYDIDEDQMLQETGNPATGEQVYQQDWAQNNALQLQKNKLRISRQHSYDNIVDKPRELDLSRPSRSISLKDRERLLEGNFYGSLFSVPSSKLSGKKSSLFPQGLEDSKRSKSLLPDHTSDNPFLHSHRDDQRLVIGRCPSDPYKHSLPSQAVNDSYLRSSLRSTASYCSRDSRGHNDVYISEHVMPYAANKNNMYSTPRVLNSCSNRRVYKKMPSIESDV
T3 sequence (Q13224 27-1484, species assumed, other chains not shown): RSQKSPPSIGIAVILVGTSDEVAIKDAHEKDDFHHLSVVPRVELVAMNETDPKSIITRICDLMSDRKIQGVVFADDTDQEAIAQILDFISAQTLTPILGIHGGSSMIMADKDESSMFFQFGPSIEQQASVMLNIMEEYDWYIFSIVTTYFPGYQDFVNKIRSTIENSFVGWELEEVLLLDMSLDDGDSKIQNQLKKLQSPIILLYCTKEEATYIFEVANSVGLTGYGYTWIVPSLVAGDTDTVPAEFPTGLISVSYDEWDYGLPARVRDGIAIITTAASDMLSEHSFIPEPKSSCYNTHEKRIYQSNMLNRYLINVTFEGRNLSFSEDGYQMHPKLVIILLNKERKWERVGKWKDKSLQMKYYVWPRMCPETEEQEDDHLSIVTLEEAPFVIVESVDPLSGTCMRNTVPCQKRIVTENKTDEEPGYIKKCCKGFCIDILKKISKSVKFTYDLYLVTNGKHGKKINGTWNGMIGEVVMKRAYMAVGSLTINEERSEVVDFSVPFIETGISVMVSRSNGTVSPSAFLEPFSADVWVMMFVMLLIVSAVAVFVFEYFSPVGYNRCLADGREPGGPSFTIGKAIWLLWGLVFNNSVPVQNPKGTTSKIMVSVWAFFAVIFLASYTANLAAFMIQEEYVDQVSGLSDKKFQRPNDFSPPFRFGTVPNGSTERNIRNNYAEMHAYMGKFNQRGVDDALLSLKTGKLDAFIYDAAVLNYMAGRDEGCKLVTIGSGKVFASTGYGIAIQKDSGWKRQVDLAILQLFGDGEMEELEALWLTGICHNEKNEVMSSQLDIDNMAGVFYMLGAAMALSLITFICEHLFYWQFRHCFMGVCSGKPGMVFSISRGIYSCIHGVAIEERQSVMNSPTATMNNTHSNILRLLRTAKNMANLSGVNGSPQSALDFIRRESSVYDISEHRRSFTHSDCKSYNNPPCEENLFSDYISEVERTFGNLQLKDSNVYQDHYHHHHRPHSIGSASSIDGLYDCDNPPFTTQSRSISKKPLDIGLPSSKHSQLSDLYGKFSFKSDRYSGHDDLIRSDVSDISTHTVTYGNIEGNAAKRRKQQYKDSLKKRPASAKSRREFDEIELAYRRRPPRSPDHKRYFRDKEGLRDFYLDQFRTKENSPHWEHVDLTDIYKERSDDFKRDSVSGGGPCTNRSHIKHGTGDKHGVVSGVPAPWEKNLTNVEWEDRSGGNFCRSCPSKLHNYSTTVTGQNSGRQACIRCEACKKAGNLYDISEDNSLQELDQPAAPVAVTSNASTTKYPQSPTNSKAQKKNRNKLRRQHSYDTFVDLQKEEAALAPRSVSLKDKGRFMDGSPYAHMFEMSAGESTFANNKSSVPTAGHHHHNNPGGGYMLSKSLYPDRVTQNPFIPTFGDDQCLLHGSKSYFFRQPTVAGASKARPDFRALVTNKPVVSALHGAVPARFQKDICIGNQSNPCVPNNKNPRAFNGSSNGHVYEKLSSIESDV

SMILES	activity at 100 µM [3] [%]	activity at 100 µM [1] [%]	activity at 100 µM [2, 5] [%]	activity at 100 µM [4] [%]	also measured
COc1cc2c(cc1OC)C(CCc1ccccc1)N(C(=O)c1cccc(F)c1)CC2 (stereo not drawn) [1180-1]	110				activity at 30 µM [1]: 90%; activity at 30 µM ([2]; at 30 μM, read-out: 2C percent effect at the maximum tested concentration): 96%
COc1cc2c(cc1OC)C(COc1ccccc1)N(C(=O)c1ccccc1)CC2 (stereo not drawn) [1180-2]	100	81	77	101	
COc1ccc(OCC2c3cc(OC)c(OC)cc3CCN2C(=O)c2cccc(O)c2)cc1 (stereo not drawn) [1180-3]	126	79	81	78	
COc1ccc(OCC2c3cc(OC)c(OC)cc3CCN2C(=O)c2ccco2)cc1 (stereo not drawn) [1180-4]	105	89	100	69	
COc1ccc(OCC2c3cc(OC)c(OC)cc3CCN2C(=O)c2ccno2)cc1 (stereo not drawn) [1180-5]	98	81	83	86	
COc1cccc(OCC2c3cc(OC)c(OC)cc3CCN2C(=O)c2cccc(Cl)c2)c1 (stereo not drawn) [1180-6]	93	88	94	97	
COc1cccc(OCC2c3cc(OC)c(OC)cc3CCN2C(=O)c2ccccc2)c1 (stereo not drawn) [1180-7]	94	75	75	92	
COc1cc2c(cc1OC)C(COc1ccccc1OC)N(C(=O)c1cccc(Cl)c1)CC2 (stereo not drawn) [1180-8]	99	84	73	89	
COc1cc2c(cc1OC)C(COc1ccc(OC(F)(F)F)cc1)N(C(=O)c1cccc(Cl)c1)CC2 (stereo not drawn) [1180-9]	87	99	109	97	
COc1ccc(OCC2c3cc(OC)c(OC)cc3CCN2C(=O)c2ccc(Cl)c(Cl)c2)cc1 (stereo not drawn) [1180-10]					IC50 [1]: 8 µM; Emax [1]: 172%; IC50 [2]: 3 µM; Emax [2]: 134%
COc1ccc(OCC2c3cc(OC)c(OC)cc3CCN2C(=O)c2cccc(I)c2)cc1 (stereo not drawn) [1180-11]					activity at 30 µM [1]: 111%; IC50 [2]: 31 µM; Emax [2]: 431%; activity at 30 µM [4]: 82%; activity at 30 µM [3]: 84%
COc1ccc(OCC2c3cc(OC)c(OC)cc3CCN2C(=O)c2cccc(Cl)c2Cl)cc1 (stereo not drawn) [1180-12]					activity at 30 µM [1]: 109%; IC50 [2]: 2 µM; Emax [2]: 133%; activity at 30 µM [4]: 90%; activity at 30 µM [3]: 97%
COc1ccc(OC[C@@H]2c3cc(OC)c(OC)cc3CCN2C(=O)c2cccc(Cl)c2)cc1 [1180-15]					IC50 [1]: 4 µM; Emax [1]: 364%; IC50 [2]: 2.4 µM; Emax [2]: 330%; activity at 30 µM [3]: 128%
COc1ccc(OCC2c3cc(OC)c(OC)cc3CCN2C(=O)c2cccc([N+](=O)[O-])c2)cc1 (stereo not drawn) [1180-16]	50			123	IC50 [1]: 16 µM; Emax [1]: 297%; IC50 [2]: 13 µM; Emax [2]: 267%
COc1ccc(OCC2c3cc(OC)c(OC)cc3CCN2C(=O)c2ccc(F)c(Cl)c2)cc1 (stereo not drawn) [1180-18]	136			95	IC50 [1]: 7 µM; Emax [1]: 206%; IC50 [2]: 6 µM; Emax [2]: 226%
COc1ccc(OCC2c3c(cc(OC)cc3OC)CCN2C(=O)c2ccccc2)cc1 (stereo not drawn) [1180-19]	63			100	IC50 [1]: 9 µM; Emax [1]: 150%; IC50 [2]: 10 µM; Emax [2]: 160%
COc1ccc(OCC2c3c(cc(OC)cc3OC)CCN2C(=O)c2cccc(Cl)c2)cc1 (stereo not drawn) [1180-20]	92			86	IC50 [1]: 18 µM; Emax [1]: 271%; IC50 [2]: 11 µM; Emax [2]: 253%
COc1ccc(OCC2c3c(cc(OC)cc3OC)CCN2C(=O)c2cccc(Br)c2)cc1 (stereo not drawn) [1180-21]	92			72	IC50 [1]: 7 µM; Emax [1]: 230%; IC50 [2]: 7 µM; Emax [2]: 265%
COc1ccc(OCC2c3cc4c(cc3CCN2C(=O)c2cccc(Cl)c2)OCO4)cc1 (stereo not drawn) [1180-25]	96			76	IC50 [1]: 7 µM; Emax [1]: 162%; IC50 [2]: 12 µM; Emax [2]: 188%
COc1ccc(OCC2c3ccc(OC)cc3CCN2C(=O)c2cccc(Cl)c2)cc1 (stereo not drawn) [1180-26]	93			75	IC50 [1]: 1 µM; Emax [1]: 185%; IC50 [2]: 0.8 µM; Emax [2]: 196%
COc1ccc(OCC2c3ccc(OC)cc3CCN2C(=O)c2cccc(Br)c2)cc1 (stereo not drawn) [1180-27]	107			77	IC50 [1]: 1 µM; Emax [1]: 168%; IC50 [2]: 1 µM; Emax [2]: 192%
COc1ccc(OCC2c3cc(OC)c(OC)cc3CCN2S(=O)(=O)c2cccc(Cl)c2)cc1 (stereo not drawn) [compound 1511]					activity at 10 µM ([1]; read-out: 2D percent effect at the maximum tested concentration, at 10 μM): 96%; activity at 10 µM ([2]; at 10 μM, read-out: 2C percent effect at the maximum tested concentration): 99%
NCC(=O)O [glycine, reference compound]					EC50 [1]: 200 nM

Second part, led by results:

activity at 100 µM [3] [%]	activity at 100 µM [1] [%]	activity at 100 µM [2, 5] [%]	activity at 100 µM [4] [%]	SMILES	also measured
112	105	97	67	COc1cc2c(cc1OC)C(COc1ccc(SC)cc1)N(C(=O)c1cccc(Cl)c1)CC2 (stereo not drawn) [1180-13]	
115	103	93	128	COc1cc2c(cc1OC)C(COc1ccc(SC)cc1)N(C(=O)c1ccccc1)CC2 (stereo not drawn) [1180-14]	
	83	95	90	COc1ccc(OCC2c3cc(OC)c(OC)cc3CCN2Cc2ccccc2)cc1 (stereo not drawn) [1180-17]	activity at 20 µM ([3]; at 20 μM): 50%
95	58	79		COc1cc2c(cc1OC)C(COc1ccc(OCc3ccccc3)cc1)N(C(=O)c1cccc(Cl)c1)CC2 (stereo not drawn) [1180-22]	activity at 20 µM ([4]; at 20 μM): 50%
140	78	87	61	COc1ccc(OCC2c3cc(OC)c(OC)cc3CCN2C(=O)N2CCOCC2)cc1 (stereo not drawn) [1180-23]	
100	83	79	96	COc1ccc(OCC2c3cc(OC)c(OC)cc3CCN2C(=O)CN2CCOCC2)cc1 (stereo not drawn) [1180-24]	
75		82	58	COc1cc2c(cc1OC)CN(C(=O)c1cccc(Cl)c1)CC2 [1180-29]	
	97	105		COc1ccc(OCC2c3cc(OC)c(OC)cc3CCN2C(=O)c2ccccc2C)cc1 (stereo not drawn) [compound 1263]	
	93	98	75	COc1ccc(OCC2c3cc(OC)c(OC)cc3CCN2C(=O)c2ccc(OC)cc2)cc1 (stereo not drawn) [compound 1364]	
	93	104		C=C(OC)c1ccc(OCC2c3cc(OC)c(OC)cc3CCN2C(=O)c2ccc(OC)cc2)cc1 (stereo not drawn) [compound 1367]	
	88	86		COc1ccc(OCC2c3cc(OC)c(OC)cc3CCN2C(=O)Nc2ccccc2)cc1 (stereo not drawn) [compound 1407]	
	88	95		COc1ccc(OCC2c3cc(OC)c(OC)cc3CCN2C(=O)c2ccc3c(c2)OCO3)cc1 (stereo not drawn) [compound 1408]	
	82	76		COc1ccc(OCC2c3cc(OC)c(OC)cc3CCN2C(=O)c2ccccc2Cl)cc1 (stereo not drawn) [compound 1409]	
	89	94		COC(=O)c1ccc(OCC2c3cc(OC)c(OC)cc3CCN2C(=O)c2cccc(Br)c2)cc1 (stereo not drawn) [compound 1410]	
	66	84		COc1ccc(OCC2c3cc(OC)c(OC)cc3CCN2C(=O)Nc2ccc(Cl)cc2)cc1 (stereo not drawn) [compound 1411]	
	79	93		COc1ccc(OCC2c3cc(OC)c(OC)cc3CCN2C(=S)Nc2ccccc2)cc1 (stereo not drawn) [compound 1412]	
	74	102		COc1ccc(OCC2c3cc(OC)c(OC)cc3CCN2C(=S)Nc2cccc(C)c2)cc1 (stereo not drawn) [compound 1413]	
	93	99		COc1ccc(OCC2c3cc(OC)c(OC)cc3CCN2C(=S)Nc2cccc(F)c2)cc1 (stereo not drawn) [compound 1414]	
	87	99		COc1ccc(OCC2c3cc(OC)c(OC)cc3CCN2C(=S)Nc2cccc(Cl)c2)cc1 (stereo not drawn) [compound 1415]	
	87	96		COc1ccc(OCC2c3cc(OC)c(OC)cc3CCN2C(=S)Nc2cccc(Br)c2)cc1 (stereo not drawn) [compound 1416]	
	87	90	87	COc1ccc(OCC2c3cc(OC)c(OC)cc3CCN2C(=O)c2ccncc2)cc1 (stereo not drawn) [compound 1510]	
